# Patent US20240239764A1, “SUBSTITUTED AMINOBENZYL HETEROARYL COMPOUNDS AS EGFR AND/OR PI3K INHIBITORS” (Mekanistic Therapeutics, priority 2020, published 2024)
# Like-named read-outs stand apart in the source and are kept apart here.
# How the values were obtained:
# PI3Ka = PI3Ka (Homo sapiens, UniProt P42336); assay: Z′-LYTE / ADAPTA kinase assay, PI3Ka; type: biochemical; conditions: for inhibition at 0.1 µM: read-out: PI3Ka % Inh. @100 nM
# From the text: (§1) The Z′-LYTE® biochemical assay employs a fluorescence-based, coupled-enzyme format and is based on the differential sensitivity of phosphorylated and non-phosphorylated peptides to proteolytic cleavage (FIG. 6). The peptide substrate is labeled with two fluorophores—one at each end—that make up a FRET pair. In the primary reaction, the kinase transfers the gamma-phosphate of ATP to a single tyrosine, serine or threonine residue in a synthetic FRET-peptide. In the secondary reaction, a site-specific protease recognizes and cleaves non-phosphorylated FRET-peptides. Phosphorylation of FRET-peptides suppresses cleavage by the Development Reagent. Cleavage disrupts FRET between the donor (i.e., coumarin) and acceptor (i.e., fluorescein) fluorophores on the FRET-peptide, whereas uncleaved, phosphorylated FRET-peptides maintain FRET. A ratiometric method, which calculates the ratio (the Emission Ratio) of donor emission to acceptor emission after excitation of the donor fluorophore at 400 nm, is used to quantitate reaction progress.
# A significant benefit of this ratiometric method for quantitating reaction progress is the elimination of well-to-well variations in FRET-peptide concentration and signal intensities. As a result, the assay yields very high Z′-factor values (>0.7) at a low percent phosphorylation.
# Both cleaved and uncleaved FRET-peptides contribute to the fluorescence signals and therefore to the Emission Ratio. The extent of phosphorylation of the FRET-peptide can be calculated from the Emission Ratio.
# Enzyme: The ADAPTA universal kinase assay is a homogenous, fluorescent based immunoassay for the detection of ADP. In contrast to ATP depletion assays, the ADAPTA assay is extremely sensitive to ADP formation such that a majority of the signal change occurs in the first 10-20% conversion of ATP to ADP. This makes the ADAPTA universal kinase assay ideally suited for use with low activity kinases.
# The principle of the ADAPTA universal kinase assay is outlined below. The assay itself can be divided into two phases: a kinase reaction phase, and an ADP detection phase. In the kinase reaction phase, all components required for the kinase reaction are added to the well, and the reaction is allowed to incubate for 60 minutes. After the reaction, a detection solution consisting of a europium labeled anti-ADP antibody, an AlexaFluor® 647 labeled ADP tracer, and EDTA (to stop the kinase reaction) is added to the assay well. ADP formed by the kinase reaction (in the absence of an inhibitor) will displace the Alexa Fluor®647 labeled ADP tracer from the antibody, resulting in a decrease in the TR-FRET signal.
# Test Compounds: The Test Compounds are screened in 1% DMSO (final) in the well. For 10 point titrations, 3-fold serial dilutions are conducted from the starting concentration.
# Peptide/Kinase Mixtures: All Peptide/Kinase Mixtures are diluted to a 2× working concentration in the appropriate Kinase Buffer.
# ATP Solution: All ATP Solutions are diluted to a 4× working concentration in Kinase Buffer (50 mM HEPES pH 7.5, 0.01% BRIJ-35, 10 mM MgCl2, 1 mM EGTA). ATP Km apparent is previously determined using a Z′-LYTE® assay.
# Development Reagent Solution: The Development Reagent is diluted in Development Buffer.
# 10× Novel PKC Lipid Mix: 2 mg/mL Phosphatidyl Serine, 0.2 mg/mL DAG in 20 mM HEPES, pH 7.4, 0.3% CHAPS. For 5 mL 10× Novel PKC Lipid Mix: 1. Add 10 mgs Phosphatidyl Serine (Avanti Polar Lipids Part #8400032C or 840039C) and 1 mg DAG (Avanti Polar Lipids Part #800811 C) to a glass tube. 2. Remove the chloroform from lipid mixture by evaporating to a clear, thin film under a stream of nitrogen. Continuous rotation of the tube, at an angle to ensure maximum surface area of the lipid solution, will promote the thinnest film. 3. Add 5 mLs resuspension buffer, 20 mM HEPES, 0.3% CHAPS, pH 7.4, to the dried lipid mix 4. Heat gently to 50-60° C. for 1-2 minutes and vortex in short intervals until the lipids are dissolved to a clear or slightly hazy solution. […]
# [1] = Tolerability in the xenograft studies; type: in vivo; conditions: highest dose tested 100 mg/kg, daily dosing over >50 days, all xenograft studies
# Procedure: Xenograft Studies. Female NCR nude mice (CrTac:NCr-Foxn1mu from Taconic), 6-7 weeks old, were implanted subcutaneously with 5×10^6 cells in a […] serum-free media/Matrigel® mixture into the region of the right axilla, Mice were randomized into treatment groups and treatments initiated when tumors reached 100 to 200 mg. Compound 2R was administered daily by oral gavage as a fine suspension in 1:2 propylene glycol in 1% Tween80, Na3PO4 based upon individual animal body weight (0.2 mL/20 g). Subcutaneous tumor volume and body weights were measured two to three times a week. Tumor volumes were calculated by measuring two perpendicular diameters with calipers and using the formula: tumor volume=(length×width2)/2. Individual mice were dosed daily until their tumor burden reached 500 mg for the CAL-27 and HCC-70 models or 1000 mg for the CAL-33 model, to allow for calculation of increase in progression-free survival. Percent increase in survival was calculated by comparing the median time to reach either 500 mg or 1000 mg in the treated group versus the vehicle control group. A complete response (CR) is defined as a tumor below the limits of palpation ([…]).
# [2] = Pharmacokinetics in mice, single IV / oral dose; type: in vivo
# Procedure: (§2) The pharmacokinetics of Compound 2R (HCl salt) and Comparative Compound 2 were studied following a single intravenous and/or oral administration to mice, dogs, and monkeys (n=3 for all species). The IV and PO solution formulations for Comparative Compound 2 contained 20% (w/v) propylene glycol, 75% (w/v) 50 mM trisodium phosphate (pH 12), and 5% (w/v) Kolliphor EL. The formulation for Compound 2R contained 1:2 propylene glycol: 1% Tween 80/Na3PO4 (50 mM). Subsequent pharmacokinetic data analysis was performed using non-compartmental analysis modules in Phoenix/WINNONLIN 6.3 (Pharsight, St. Louis, Missouri, USA), and the linear trapezoidal rule was used for AUC calculation. Terminal elimination half-life (t½) was calculated based on data points (≥3) in the terminal phase; Tmax=Time of maximum observed concentration; AUClast/D=Area under the concentration-time curve from time zero to the last observed concentration/divided by dose; Cl_obs=Total body clearance; Cmax=maximum observed concentration; F=bioavailability of oral dose form. Blood samples were assayed for compounds using protein precipitation with acetonitrile followed by HPLC/MS/MS analysis. Blood concentration-time data were analyzed by non-compartmental methods.
# [3] = Pharmacokinetics in dogs, single IV / oral dose; type: in vivo
# Procedure: as §2
# [4] = Pharmacokinetics in monkeys, single IV / oral dose; type: in vivo
# Procedure: as §2
# [5] = Solubility determination (PBS 7.4, SIF, SGF); type: physicochemical; conditions: kinetic from dmso stock
# Procedure: Preparation of stock solutions: The stock solutions of test compounds and control compound diclofenac were prepared in DMSO at the concentrations of 10 mM.
# Simulated Gastric Fluid (SGF): An aqueous mixture including hydrochloric acid, sodium chloride, and pepsin (pH=1.2).
# Simulated Intestinal Fluid (SIF): Prepared by dissolving 6.8 g of KH2PO4 into about 500 mL ultrapure water and adjust the solution to a pH 6.8 with 0.1 M NaOH. 10 g trypsin is then dissolved into ultrapure water. The two solutions are mixed well and diluted with ultrapure water to a final volume of 1000 mL.
# 485 μL of (SIF, SGF, PBS 7.4, FESSIF, or FESSGF) was added into each vial of the cap-less Solubility Sample plate. The assay was performed in duplicate. Add one stir stick to each vial and seal using a molded PTFE/Silicone plug. […] After completion of the 2 hours, plugs were removed and the stir sticks were removed using a big magnet, the samples from the Solubility Sample plate were transferred into the filter plate. Using the Vacuum Manifold, all the samples were filtered. Aliquot of 5 μL and 5 μL DMSO were taken from the filtrate followed by addition of 490 μL of a mixture of H2O and acetonitrile containing internal standard (1:1). A certain proportion of ultrapure water was used to dilute the diluent according to the peak shape. The dilution factor was changed according to the solubility values and the LC-MS signal response.
# Preparation of 300 μM standards (STD): From the 10 mM DMSO STD plate, 6 μL was transferred into the remaining empty plate, and then 194 μL of DMSO was added to that plate to have a STD concentration of 300 μM. From the 300 μM DMSO STD plate, 5 μL DMSO STD and 5 μL SIF was transferred into the remaining empty plate, and then 490 μL of a mixture of H2O and acetonitrile containing internal standard (1:1) was added to that plate to have a final STD concentration of 3 μM. A certain proportion of ultrapure water was used to dilute the diluent according to the peak shape. The concentrations of the standard samples were changed according to the LC-MS signal response.
# Procedure for sample analysis: The plate was placed into the well plate autosampler. The samples were evaluated by LC-MS/MS analysis.
# Data analysis: All calculations were carried out using Microsoft Excel. The filtrate was analyzed and quantified against a standard of known concentration using LC coupled with mass spectral peak identification and quantitation. Solubility values of the test compound and control compound were calculated as follows: […]
# Any value of the compounds that was not within the specified limits was rejected and the experiment was repeated.
# EGFR = EGFR (Homo sapiens, UniProt P00533); assay: Z′-LYTE / ADAPTA kinase assay, EGFR; type: biochemical
# Sequence of EGFR (P00533 25-1210): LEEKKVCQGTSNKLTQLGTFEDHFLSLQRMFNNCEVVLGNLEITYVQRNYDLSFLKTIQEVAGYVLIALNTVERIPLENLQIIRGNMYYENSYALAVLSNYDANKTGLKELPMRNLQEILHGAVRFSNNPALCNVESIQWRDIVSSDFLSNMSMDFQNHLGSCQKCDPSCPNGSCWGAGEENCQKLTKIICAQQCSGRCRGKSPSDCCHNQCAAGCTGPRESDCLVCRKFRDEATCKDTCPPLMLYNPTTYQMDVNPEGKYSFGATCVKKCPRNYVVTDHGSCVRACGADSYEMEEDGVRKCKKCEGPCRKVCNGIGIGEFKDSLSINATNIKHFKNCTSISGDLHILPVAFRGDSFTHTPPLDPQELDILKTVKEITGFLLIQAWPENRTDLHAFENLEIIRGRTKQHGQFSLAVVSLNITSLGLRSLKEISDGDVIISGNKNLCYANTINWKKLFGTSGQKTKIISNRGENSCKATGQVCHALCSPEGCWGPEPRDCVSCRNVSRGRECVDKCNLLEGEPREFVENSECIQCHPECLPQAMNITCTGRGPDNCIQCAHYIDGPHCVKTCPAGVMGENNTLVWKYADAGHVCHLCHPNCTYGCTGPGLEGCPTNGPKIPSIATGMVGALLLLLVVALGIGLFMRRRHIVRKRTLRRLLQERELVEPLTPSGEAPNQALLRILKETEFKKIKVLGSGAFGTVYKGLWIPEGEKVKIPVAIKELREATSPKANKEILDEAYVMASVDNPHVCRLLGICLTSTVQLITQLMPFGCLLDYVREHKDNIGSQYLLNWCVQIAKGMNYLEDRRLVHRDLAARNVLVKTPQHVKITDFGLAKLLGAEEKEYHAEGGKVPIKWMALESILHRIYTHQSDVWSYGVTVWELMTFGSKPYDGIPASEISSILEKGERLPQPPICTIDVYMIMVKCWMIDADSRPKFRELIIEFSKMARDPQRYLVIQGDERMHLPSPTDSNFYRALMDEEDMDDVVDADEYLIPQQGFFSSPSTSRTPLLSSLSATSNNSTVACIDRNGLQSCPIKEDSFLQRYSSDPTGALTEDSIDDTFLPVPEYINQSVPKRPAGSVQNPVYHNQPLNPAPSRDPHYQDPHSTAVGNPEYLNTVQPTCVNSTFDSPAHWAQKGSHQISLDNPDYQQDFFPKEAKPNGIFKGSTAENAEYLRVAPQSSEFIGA
# From the text: as §1, with “Cleavage disrupts FRET between the donor (i.e., coumarin) and acceptor (i.e., fluorescein) fluorophores on the FRET-peptide, whereas uncleaved, phosphorylated FRET-peptides maintain FRET.” left out
# (§3) A significant benefit of this ratiometric method for quantitating reaction progress is the elimination of well-to-well variations in FRET-peptide concentration and signal intensities. […]
# (§4) Both cleaved and uncleaved FRET-peptides contribute to the fluorescence signals and therefore to the Emission Ratio. The extent of phosphorylation of the FRET-peptide can be calculated from the Emission Ratio. […]
# DNA-PK = DNA-PK (Homo sapiens, UniProt P78527); assay: Z′-LYTE / ADAPTA kinase assay, DNA-PK; type: biochemical; conditions: read-out: DNA-PK % Inh. @ 100 nM
# From the text: as §1, with “Cleavage disrupts FRET between the donor (i.e., coumarin) and acceptor (i.e., fluorescein) fluorophores on the FRET-peptide, whereas uncleaved, phosphorylated FRET-peptides maintain FRET.” left out
# as §3, §4
# [6] = simulated intestinal fluid (SIF), fassgf or other biorelevant, simulated intestinal fluid pH 6.8, 25° C., read-out: Solubility SIF
# Sequence of PI3Ka (P42336 whole entry): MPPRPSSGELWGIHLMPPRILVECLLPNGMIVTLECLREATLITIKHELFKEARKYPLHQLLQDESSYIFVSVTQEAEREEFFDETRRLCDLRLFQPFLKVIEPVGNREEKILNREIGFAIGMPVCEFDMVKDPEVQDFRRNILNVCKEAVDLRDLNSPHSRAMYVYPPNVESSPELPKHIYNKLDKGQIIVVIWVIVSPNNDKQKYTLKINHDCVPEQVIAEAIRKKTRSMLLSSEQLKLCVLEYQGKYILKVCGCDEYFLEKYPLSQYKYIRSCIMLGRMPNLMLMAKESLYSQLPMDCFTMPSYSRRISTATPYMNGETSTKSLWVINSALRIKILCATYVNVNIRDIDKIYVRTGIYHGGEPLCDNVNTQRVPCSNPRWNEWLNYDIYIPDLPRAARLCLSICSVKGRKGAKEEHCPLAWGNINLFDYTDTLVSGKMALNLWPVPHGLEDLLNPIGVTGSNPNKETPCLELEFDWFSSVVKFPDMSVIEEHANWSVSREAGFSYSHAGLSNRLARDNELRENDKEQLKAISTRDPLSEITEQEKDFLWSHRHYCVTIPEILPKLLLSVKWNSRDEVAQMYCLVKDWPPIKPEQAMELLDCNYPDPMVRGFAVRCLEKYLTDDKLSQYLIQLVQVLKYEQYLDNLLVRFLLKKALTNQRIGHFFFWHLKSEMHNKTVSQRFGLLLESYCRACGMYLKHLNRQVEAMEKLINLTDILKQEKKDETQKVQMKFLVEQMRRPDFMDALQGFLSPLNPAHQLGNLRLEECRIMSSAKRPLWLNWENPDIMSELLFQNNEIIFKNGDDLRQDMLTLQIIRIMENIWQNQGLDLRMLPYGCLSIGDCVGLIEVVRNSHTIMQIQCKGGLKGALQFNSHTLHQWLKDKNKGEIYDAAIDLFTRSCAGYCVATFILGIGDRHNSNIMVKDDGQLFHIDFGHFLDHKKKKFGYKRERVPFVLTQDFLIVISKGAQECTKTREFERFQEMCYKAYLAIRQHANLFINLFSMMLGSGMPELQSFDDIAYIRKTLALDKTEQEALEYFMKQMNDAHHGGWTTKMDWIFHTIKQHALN
# Sequence of PI3Ka (P27986 whole entry partner): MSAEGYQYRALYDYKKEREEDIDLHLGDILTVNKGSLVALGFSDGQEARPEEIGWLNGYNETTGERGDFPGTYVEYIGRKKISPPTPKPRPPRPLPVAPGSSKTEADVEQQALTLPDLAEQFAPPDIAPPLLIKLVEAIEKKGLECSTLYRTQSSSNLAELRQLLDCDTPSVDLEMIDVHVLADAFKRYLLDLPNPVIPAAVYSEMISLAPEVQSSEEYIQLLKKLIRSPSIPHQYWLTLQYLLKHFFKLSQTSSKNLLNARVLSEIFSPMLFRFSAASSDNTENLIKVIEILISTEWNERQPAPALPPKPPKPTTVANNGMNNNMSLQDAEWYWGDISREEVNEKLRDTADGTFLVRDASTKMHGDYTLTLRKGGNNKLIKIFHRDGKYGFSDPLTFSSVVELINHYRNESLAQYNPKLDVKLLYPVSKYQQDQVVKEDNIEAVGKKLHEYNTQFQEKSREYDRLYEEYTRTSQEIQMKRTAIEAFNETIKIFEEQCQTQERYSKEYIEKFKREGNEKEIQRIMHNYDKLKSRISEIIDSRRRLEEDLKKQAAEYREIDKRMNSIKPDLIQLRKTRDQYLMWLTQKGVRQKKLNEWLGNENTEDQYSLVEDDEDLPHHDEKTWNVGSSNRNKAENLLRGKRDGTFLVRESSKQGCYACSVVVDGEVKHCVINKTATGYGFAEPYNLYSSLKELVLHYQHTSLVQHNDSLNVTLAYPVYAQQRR
compound,measurement,setting,value
"C[C@H](Nc1c(C#N)cnc2ccc(-c3cnc(Cl)c(NS(C)(=O)=O)c3)cc12)c1ccccc1 [Compound 48S, N-(2-chloro-5-(3-cyano-4-((1S-phenylethyl)amino)quinolin-6-yl)pyridin-3-yl)methanesulfonamide]",IC50,PI3Ka,< 0.002 µM
"C[C@@H](Nc1ncnc2ccc(-c3cnc(Cl)c(NS(C)(=O)=O)c3)cc12)c1ccccc1 [Compound 2R, N-(2-chloro-5-(4-((1R-phenylethyl)amino)quinazolin-6-yl)pyridin-3-yl)methanesulfonamide]","Tolerability (body weight loss, clinical signs)",[1],well tolerated
same,increase in exposure (AUClast/D) vs Comparative Compound 2,[2]; IV,~3 fold
same,enhanced exposure (AUClast/D) relative to Comparative Compound 2,[2]; oral,3 fold
same,increase in exposure (AUClast/D) vs Comparative Compound 2,[3]; IV,~15 fold
same,improvement in exposure (AUClast/D) vs Comparative Compound 2,[3]; oral,> 28 fold
same,increase in exposure (AUClast/D) vs Comparative Compound 2,[4]; IV,~3 fold
same,improvement in exposure (AUClast/D) vs Comparative Compound 2,[4]; oral,> 74 fold
"CS(=O)(=O)Nc1cc(-c2ccc3ncc(C#N)c(NC4(c5ccccc5)CC4)c3c2)cnc1Cl [Compound 106, N-[2-chloro-5-[3-cyano-4-[(1-phenylcyclopropyl)amino]-6-quinolyl]-3-pyridyl]methanesulfonamide]",inhibition at 0.1 µM,PI3Ka,> 90%
"CS(=O)(=O)Nc1cc(-c2ccc3ncc(C#N)c(NC4c5ccccc5CC4O)c3c2)cnc1Cl (stereo not drawn) [Compound 103, N-[2-chloro-5-[3-cyano-4-[(2-hydroxyindan-1-yl)amino]-6-quinolyl]-3-pyridyl]methanesulfonamide]",inhibition at 0.1 µM,PI3Ka,> 90%
"C[C@@H](Nc1c(C#N)cnc2ccc(-c3cnc(Cl)c(NS(C)(=O)=O)c3)cc12)c1ccccc1 [Compound 48R, N-(2-chloro-5-(3-cyano-4-((1R-phenylethyl)amino)quinolin-6-yl)pyridin-3-yl)methanesulfonamide]",IC50,PI3Ka,0.002 to 0.02 µM
same,solubility at 2 h,"[5]; aqueous buffer, PBS pH 7.4, 25° C., read-out: Solubility pH 7.4 PBS buffer",≤ 20 µM
same,solubility at 2 h,"[5]; simulated gastric fluid (SGF), simulated gastric fluid pH 1.2, 25° C., read-out: Solubility SGF",> 200 µM
same,solubility at 2 h,[5]; [6],≤ 20 µM
"CS(=O)(=O)Nc1cncc(-c2ccc3ncnc(NCc4ccccc4)c3c2)c1 [Comparative Compound 3, reference compound]",IC50,PI3Ka,0.02 to 0.2 µM
same,inhibition at 0.1 µM,PI3Ka,80 to 90%
same,IC50,EGFR,0.02 to 0.2 µM
same,inhibition at 0.1 µM,EGFR; read-out: EGFR % Inh. @ 100 nM,> 90%
same,inhibition at 0.1 µM,DNA-PK,> 90%
same,solubility at 2 h,[5]; [6],≤ 20 µM
"C[C@@H](Nc1c(C#N)cnc2ccc(-c3cnc(Cl)c(NS(C)(=O)=O)c3)cc12)c1ccc(F)cc1 [Compound 97R, N-[2-chloro-5-[3-cyano-4-[[(1R)-1-(4-fluorophenyl)ethyl]amino]-6-quinolyl]-3-pyridyl]methanesulfonamide]",inhibition at 0.1 µM,PI3Ka,80 to 90%
